US12693289B2, “Application of compounds in the preparation of reagents for down-regulation of RUNX2” (Geneheal Biotechnology Co., Ltd., priority 2020, dated 2026)

Assays:
RUNX2 [1] = test: RUNX2 protein expression by Western blot in lung cancer cells A549; type: cell-based
Method: (§1) Cells are seeded in medium dishes (6 cm), cultured overnight, when the cell confluency is 80%, the original medium is discarded, PBS rinses the cells, and then replaced with Fostamatinib containing a final concentration of 10 uM or other concentrations, after 6-12 hours, the cells are harvested, RNA and protein liquid are extracted, and the protein and mRNA expression changes of RUNX2 are detected by Western blot and qPCR experiments, respectively.

RUNX2 [2] = test: RUNX2 protein expression by Western blot in hepatoma cells BEL-7402; type: cell-based; settings: BEL-7402 cells, 0, 2.5, 5 and 10 uM for 6 h, FIG. 5
Method: as §1

RUNX2 [3] = test: RUNX2 protein expression by Western blot in lung cancer cell H1299; type: cell-based; settings: H1299 cells
Method: as §1

RUNX2 mRNA [4] = test: RUNX2 mRNA expression by qPCR in lung cancer cell H1299; type: cell-based; settings: H1299 cells
Method: as §1

RUNX2 [5] = test: Computational studies and preliminary experimental studies of related disease models: Runx2 expression; settings: general statement
RUNX2 mRNA [6] = test: RUNX2 mRNA expression by qPCR in lung cancer cells A549; type: cell-based
Method: as §1

RUNX2 mRNA [7] = test: Animal testing (intraperitoneal injection): RUNX2 mRNA in mouse liver tissue by qPCR; type: in vivo, C57BL/6 male mice; settings: mice, 40 mg/kg intraperitoneal injection, 4 consecutive days, liver collected 48 hours after last injection, FIG. 6
Method: • Drug: Fostamatinib MCE(HY-13038A) • Mice: 8-week-old C57BL/6 male mice • Concentration of administration: 40 mg/kg • Mode of administration: intraperitoneal injection
Experimental steps: mice are randomly divided into two groups, experimental group (fostamatinib) and control group (mock), before daily experiments, a certain amount of fostamatinib is accurately weighted and dissolve in 0.5% CMC ([…] cellulose), fully pipetted into a uniform suspension, the concentration of 4 mg/ml, and ready for use. According to the injection volume of 100 ul/10 g per mouse, the intraperitoneal injection was carried out for 4 consecutive days. The mouse liver tissue was collected 48 hours after the last injection, RNA was extracted, and the mRNA expression level of RUNX2 was detected by real-time fluorescence quantitative PCR (qPCR).

[8] = treated 6 hours, antibody changed, FIG. 3
[9] = treated 8 hours, Fostamatinib 10 uM or other concentrations, FIG. 1
[10] = treated 8 hours, Fostamatinib 10 uM or other concentrations, FIG. 2

| SMILES | protein expression level of RUNX2 (RUNX2 [1]; [8]) | protein expression level of RUNX2 (RUNX2 [1]; [9]) | expression level of RUNX2 protein (RUNX2 [2]) | protein expression level of RUNX2 (RUNX2 [3]; [8]) | protein expression level of RUNX2 (RUNX2 [3]; [9]) | mRNA level of RUNX2 (RUNX2 mRNA [4]; 6 hours, FIG. 4) | mRNA expression level of RUNX2 (RUNX2 mRNA [4]; [10]) | expression of Runx2 (RUNX2 [5]) | mRNA level of RUNX2 (RUNX2 mRNA [6]; 6 hours, FIG. 4) | mRNA expression level of RUNX2 (RUNX2 mRNA [6]; [10]) | mRNA expression level of RUNX2 in liver tissue (RUNX2 mRNA [7]) |
| --- | --- | --- | --- | --- | --- | --- | --- | --- | --- | --- | --- |
| COc1cc(Nc2ncc(F)c(Nc3ccc4c(n3)N(COP(=O)(O)O)C(=O)C(C)(C)O4)n2)cc(OC)c1OC [Fostamatinib] | down-regulated a certain trend | tends to decrease | significantly reduced and dose-dependent | down-regulated a certain trend | tends to decrease | significantly reduced | decreases significantly | significantly down-regulate | significantly reduced | decreases significantly | significantly reduce |
| CNC(=O)c1cc(Oc2ccc(NC(=O)Nc3ccc(Cl)c(C(F)(F)F)c3)c(F)c2)ccn1 [Regorafenib] |  |  |  |  |  |  |  | significantly down-regulate |  |  |  |
| COc1ccc2[nH]cc(CCNC(C)=O)c2c1 [melatonin, Melatonin] |  |  |  |  |  |  |  | significantly down-regulate |  |  |  |
